The text below walks through data of publication PMC13534789, “Molecular Glue Degraders Enhance CAPRIN1‐Dependent Lysosomal Degradation of APP and Reduce Amyloid β in Alzheimer's Disease” (Advanced Science, 2026).

Experiment [1] concerns the target T1, CAPRIN1 and APP (Homo sapiens, UniProt P05067+Q14444).
T1 construct: endogenous in cells; host or cells: AG27606-Ns, sAD2.3-Ns (iPSC-derived neurons) and their lysates
Nature of the experiment: Streptavidin pull-down with biotinylated 0152 in AG27606-N lysates. It is filed as binding.

Experiment [2] has as its system LN229 and HCT116 cells. Details: method as in PMID 34644148. Conditions: cited from earlier work.

For `N#Cc1ccc2nc(NC(=O)Nc3cccc(Cl)c3)sc2c1` [HB007, reference compound], the “Competition of the 0152-biotin pull-down by excess free compound” value in experiment [1] was “not by the inactive analog HB007”. In addition, the Cancer cell growth result in experiment [2] is “inhibits cancer cell growth”.
